Twelve compounds from ChEMBL document CHEMBL1201862, “PubChem BioAssay data set” (2004) can be followed below.

Some test systems named below: SNB-19; MOLT-4; Hs-578T; SK-MEL-28; OVCAR-5; HT-29; SR; SF-539; BT-549; HCT-15; CCRF-CEM; HCT-116; SK-OV-3; TK-10; CAKI-1; OVCAR-3; OVCAR-8; NCI-H522; SNB-75.
Assay in all cases: DTP human tumour cell line panel, 48 h

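Results reflect a 48-hour exposure of cells in 96-well plates to compound at five concentrations. GI50 marks 50% less growth.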 Activity calls are given as the source filed them. No stated cut-off is given here; in the data, active = GI50 up to about 1.1 µM and inactive = higher. Bounds are passed on as bounds.

As to `N#Cc1nc(Cc2ccccc2)oc1N`, the GI50 in the assay on SNB-19 was 38.7 µM (inactive); in the assay with MOLT-4, > 100 µM (inactive); in the assay on Hs-578T, 25.2 µM (inactive); with SK-MEL-28, > 100 µM (inactive); in the assay on OVCAR-5, > 100 µM (inactive); in the assay on HT-29 it was > 100 µM (inactive). Further, the GI50 in the assay with SR was > 100 µM (inactive); with SF-539, > 100 µM (inactive); with BT-549, > 100 µM (inactive); in the assay on HCT-15 it was more than 100 µM; in the assay on CCRF-CEM, 44.3 µM (inactive); with HCT-116, > 100 µM (inactive). Besides, the GI50 in the assay on SK-OV-3, in the assay on TK-10, in the assay with CAKI-1 and in the assay on OVCAR-3 was > 100 µM (inactive) each time.
`Cc1cc2c(C(C)C)c(O)c(O)c(/C=N/c3cc(C(F)(F)F)ccc3Cl)c2c(O)c1-c1c(C)cc2c(C(C)C)c(O)c(O)c(/C=N/c3cc(C(F)(F)F)ccc3Cl)c2c1O`: the GI50 was 28.1 µM (inactive) in the assay on SNB-19; 44.5 µM (inactive) in the assay with OVCAR-8; > 100 µM (inactive) with Hs-578T; 38.1 µM (inactive) in the assay on SK-MEL-28; 21.5 µM (inactive) with NCI-H522; 77.3 µM (inactive) in the assay with OVCAR-5. Moreover, the GI50 is 32.5 µM (inactive) in the assay with HT-29; 25.4 µM (inactive) in the assay on SR; 58.6 µM (inactive) in the assay with SF-539; 28.3 µM (inactive) in the assay on BT-549; 34.8 µM with HCT-15; > 100 µM (inactive) in the assay on CCRF-CEM. For the same compound, the GI50 was 74.8 µM (inactive) in the assay on HCT-116; 12.5 µM (inactive) in the assay on SK-OV-3; 60.7 µM (inactive) in the assay with TK-10; 48.3 µM (inactive) with CAKI-1; 37.3 µM (inactive) in the assay with OVCAR-3.
For the compound `CCCCCCCCCCCC[C@@H](O)[C@H]1CC[C@H]([C@H]2CC[C@H]([C@H](O)CC[C@H](O)CCCCCCCC3=C[C@H](C)OC3=O)O2)O1`, the GI50 was 1.23 µM (inactive) in the assay on SNB-19; 1.84 µM (inactive) in the assay on MOLT-4; 1.82 µM (inactive) with OVCAR-8; 2.18 µM (inactive) in the assay with Hs-578T; 1.63 µM (inactive) with SK-MEL-28; 1.69 µM (inactive) in the assay on OVCAR-5. Besides, the GI50 in the assay on HT-29 is 1.76 µM (inactive); in the assay on SR, 2.03 µM (inactive); in the assay with SF-539, 1.68 µM (inactive); in the assay with BT-549, 0.00352 µM (active); in the assay with HCT-15, 2.03 µM; in the assay on CCRF-CEM, 1.09 µM (active). For the same compound, the GI50 with SNB-75 is 1.75 µM (inactive); in the assay with HCT-116, 1.23 µM (inactive); with TK-10, 1.21 µM (inactive); in the assay on CAKI-1, 2.67 µM (inactive); in the assay on OVCAR-3 it was 1.58 µM (inactive).
With `CCOC(=O)c1nc2ccc(C(F)(F)F)cc2nc1Oc1cc(OC)cc(OC)c1`, the GI50 with SNB-19 was 68.9 µM (inactive); with MOLT-4 it was > 100 µM (inactive); in the assay with OVCAR-8 it was > 100 µM (inactive); with Hs-578T, 17 µM (inactive); with SK-MEL-28, > 100 µM (inactive); in the assay with OVCAR-5, > 100 µM (inactive). In addition, the GI50 in the assay on HT-29 is > 100 µM (inactive); in the assay with SF-539 it was 57.1 µM (inactive); with BT-549, > 100 µM (inactive); with HCT-15 it was more than 100 µM; in the assay with CCRF-CEM, > 100 µM (inactive); in the assay with SNB-75, 21.4 µM (inactive). In addition, the GI50 in the assay on HCT-116, with SK-OV-3, with TK-10 and with OVCAR-3 was > 100 µM (inactive) throughout.
As to `COC[C@@H](C[C@H]1O[C@@](O)([C@H](O)[C@@H]2C[C@H](OC)[C@@H](O)CC/C=C(C)/C=C/[C@@H](O[C@@H]3O[C@@H](C)[C@H](OC)[C@@H](O)[C@@H]3O)[C@H](C)/C=C(C)/C=C(C)/C=C(\C)C(=O)O2)[C@H](C)[C@@H](O)[C@H]1C)O[C@H]1C[C@](C)(O)[C@@H](O[C@H]2C[C@@H](OC)[C@H](O)[C@@H](C)O2)C(C)O1` (stereo partly specified), the GI50 with MOLT-4 was 2.44 µM (inactive); in the assay with OVCAR-8 it was 1.44 µM (inactive); with Hs-578T it was 69 µM (inactive); in the assay with SK-MEL-28, > 67.8 µM (inactive); in the assay on NCI-H522, 0.0685 µM (active); in the assay on OVCAR-5, > 100 µM (inactive). The GI50 with HT-29 was > 100 µM (inactive); with SF-539, > 100 µM (inactive); with BT-549, > 92.3 µM (inactive); in the assay on HCT-15, more than 100 µM; with HCT-116 it was > 100 µM (inactive); in the assay with SK-OV-3, > 100 µM (inactive). Besides, the GI50 in the assay with TK-10 is > 100 µM (inactive); with CAKI-1, > 100 µM (inactive); in the assay on OVCAR-3, 63.1 µM (inactive).
`CC1=C([S+]([O-])c2ccc(C)cc2)CCC2(CCCCO2)O1` (stereo unspecified): the GI50 in the assay on SNB-19, in the assay with MOLT-4, with OVCAR-8, with Hs-578T, with SK-MEL-28 and with NCI-H522 was > 100 µM (inactive) in each case. In addition, the GI50 was > 100 µM (inactive) in the assay on OVCAR-5; > 100 µM (inactive) with HT-29; > 100 µM (inactive) in the assay on BT-549; more than 100 µM in the assay with HCT-15; > 100 µM (inactive) in the assay with SNB-75; > 100 µM (inactive) in the assay on HCT-116. Further, the GI50 with TK-10, with CAKI-1 and in the assay on OVCAR-3 was > 100 µM (inactive) throughout.
`Cc1cc2c(cc1Cl)SC(NN(C)C)=NS2(=O)=O`: the GI50 with SNB-19, in the assay on MOLT-4, with OVCAR-8, in the assay on Hs-578T, in the assay on SK-MEL-28 and in the assay on NCI-H522 was > 10 µM (inactive) in each case. The GI50 with OVCAR-5 was > 10 µM (inactive); in the assay on HT-29, > 10 µM (inactive); in the assay on SF-539, > 10 µM (inactive); in the assay on BT-549 it was > 10 µM (inactive); in the assay with HCT-15 it was more than 10 µM; in the assay with CCRF-CEM, > 10 µM (inactive). Besides, the GI50 in the assay with SNB-75, with HCT-116, with SK-OV-3, in the assay on TK-10, in the assay on CAKI-1 and in the assay with OVCAR-3 was > 10 µM (inactive) throughout.
Consider `COc1ccc(/C=N/NC(=O)c2ccccc2Nc2ccccc2C(=O)N/N=C/c2ccc(OC)c(OC)c2)cc1OC`, for which the GI50 in the assay with SNB-19, with MOLT-4, with OVCAR-8, in the assay on Hs-578T, with SK-MEL-28 and in the assay on OVCAR-5 was > 100 µM (inactive) each time. The GI50 was > 100 µM (inactive) in the assay with HT-29; > 100 µM (inactive) in the assay with SR; > 100 µM (inactive) in the assay on BT-549; more than 100 µM with HCT-15; > 100 µM (inactive) with CCRF-CEM; > 100 µM (inactive) in the assay on SNB-75. In addition, the GI50 in the assay with HCT-116, with SK-OV-3, in the assay with TK-10, in the assay with CAKI-1 and in the assay on OVCAR-3 was > 100 µM (inactive) throughout.
Take `Cc1cc(OP2(=O)NCc3ncccc3O2)ccc1Cl` (stereo unspecified): the GI50 in the assay on SNB-19, with MOLT-4, in the assay with OVCAR-8, in the assay on SK-MEL-28, in the assay on OVCAR-5 and with SR was > 100 µM (inactive) in each case. The GI50 with SF-539 is > 100 µM (inactive); in the assay on BT-549 it was > 100 µM (inactive); with HCT-15, more than 100 µM; in the assay with CCRF-CEM, > 100 µM (inactive); with SNB-75, > 100 µM (inactive); in the assay on HCT-116 it was > 100 µM (inactive). Also, the GI50 in the assay with CAKI-1 and in the assay with OVCAR-3 was > 100 µM (inactive) each time.
As to `CCOC(=O)C12C3CCC1C2C(=O)C3` (stereo unspecified), the GI50 with SNB-19, with MOLT-4, with OVCAR-8, in the assay on SK-MEL-28, with NCI-H522 and in the assay with OVCAR-5 was > 100 µM (inactive) throughout. Moreover, the GI50 in the assay on HT-29 is > 100 µM (inactive); with SR it was > 100 µM (inactive); with SF-539, > 100 µM (inactive); in the assay with BT-549, > 100 µM (inactive); in the assay with HCT-15, more than 100 µM; with CCRF-CEM, > 100 µM (inactive). The GI50 in the assay with SNB-75, with HCT-116, with SK-OV-3, in the assay with TK-10, with CAKI-1 and in the assay with OVCAR-3 was > 100 µM (inactive) in each case.
As for `CC(C)(C)c1ccc2c(c1)C#Cc1cc(C(C)(C)C)ccc1OCCCO2`, the GI50 with SNB-19, in the assay with MOLT-4, with OVCAR-8, in the assay on Hs-578T, in the assay with SK-MEL-28 and in the assay with NCI-H522 was > 100 µM (inactive) in each case. In addition, the GI50 in the assay with OVCAR-5 was > 100 µM (inactive); in the assay with HT-29, > 100 µM (inactive); in the assay on BT-549 it was > 100 µM (inactive); in the assay with HCT-15, more than 100 µM; in the assay with CCRF-CEM it was > 100 µM (inactive); with HCT-116, > 100 µM (inactive). Besides, the GI50 in the assay on TK-10, in the assay with CAKI-1 and in the assay on OVCAR-3 was > 100 µM (inactive) in each case.
As for `N#Cc1ccccc1-c1nc2c3c(c(N)ccc3n1)C(=O)c1ccccc1-2`, the GI50 is 55.1 µM (inactive) in the assay on SNB-19; 32.3 µM (inactive) in the assay on MOLT-4; 33.5 µM (inactive) with OVCAR-8; 33.2 µM (inactive) in the assay on Hs-578T; 24.8 µM (inactive) in the assay on SK-MEL-28; 32 µM (inactive) in the assay on NCI-H522. Further, the GI50 is 34.8 µM (inactive) in the assay on OVCAR-5; 43.4 µM (inactive) with HT-29; 37.3 µM (inactive) in the assay with SF-539; > 100 µM (inactive) in the assay with BT-549; 31.8 µM in the assay on HCT-15; 18.9 µM (inactive) with CCRF-CEM. In addition, the GI50 in the assay on SNB-75 was 50.2 µM (inactive); with HCT-116, 29.7 µM (inactive); in the assay with SK-OV-3 it was 24.4 µM (inactive); in the assay with TK-10 it was 21.4 µM (inactive); in the assay with CAKI-1 it was 8.3 µM (inactive); in the assay with OVCAR-3 it was 45.1 µM (inactive).

What is called GI50 is the concentration giving 50% growth inhibition.
